How the values were obtained:
Assay type in all cases: in vivo
[1] = system: Chemotherapeutic agent-caused constipation models of Balb/c mice; experiment: Examples 272-342 (Table 5): oral CDK inhibitor, relief of constipation caused by a chemotherapeutic agent; details: CDK inhibitor oral 150 mg/kg single;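 further: percent of treated mice relieved versus chemotherapy group by feces reduction rate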
Method in brief: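 Balb/c mice, 10 per group: control, chemotherapeutic agent alone, or intragastric CDK inhibitor followed by the chemotherapeutic agent. Feces produced within 3 hours were recorded daily, and feces reduction rate (%) was calculated relative to the control group.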

[2] = system: diarrhea caused by a chemotherapeutic agent in Balb/c mice; experiment: Examples 230-271 (Table 4): oral CDK inhibitor, relief of diarrhea caused by a chemotherapeutic agent
Text: Balb/c mice were fed for 1 week, and then divided into groups. The experiment was divided into a control group, a chemotherapeutic agent group, and a CDK inhibitor group, each of which comprised 10 mice, to perform the administration experiment, for which the administration dosage, mode, time and frequency were shown in Table 4. The control group: being intragastrically administered with the same solvent as that used in the CDK inhibitor group (the time was shown in Table 4), and then being injected/intragastrically administered with the same solvent as that used in the chemotherapeutic agent group (the administration mode was shown in Table 4): the chemotherapeutic agent group: being intragastrically administered with the same solvent as that used in the CDK inhibitor group (the time was shown in Table 4), and then being injected/intragastrically administered with the chemotherapeutic agent (the type, administration mode and dosage were shown in Table 4): the CDK inhibitor group: being intragastrically administered with the CDK inhibitor (the time was shown in Table 4), and then being administered with the chemotherapeutic agent (the mode and dosage were shown in Table 4).
(§1) The diarrhea grading of mice was observed and recorded every day.

[3] = system: diarrhea caused by a chemotherapeutic agent in Balb/c mice; experiment: Examples 382-405 (Table 7): various administration modes of the CDK inhibitor, relief of diarrhea caused by a chemotherapeutic agent; details: cycle 8 days
Text: Balb/c mice were fed for 1 week, and then divided into groups. The experiment was divided into a control group, a chemotherapeutic agent group, CDK inhibitor groups (including an oral administration group of a CDK inhibitor, an intraperitoneal injection group of a CDK inhibitor, an intramuscular injection group of a CDK inhibitor, a local administration group of a CDK inhibitor), each of which comprised 10 mice, to perform the administration experiment, for which the administration dosage, mode, time and frequency were shown in Table 7. The control group: being administered with the same solvent as that used in the CDK inhibitor group (the time and mode were shown in Table 7), and then being injected/intragastrically administered with the same solvent as that used in the chemotherapeutic agent group (the administration mode was shown in Table 7): the chemotherapeutic agent group: being administered with the same solvent as that used in the CDK inhibitor group (the time and mode were shown in Table 7), and then being injected/intragastrically administered with the chemotherapeutic agent (the type, administration mode and dosage were shown in Table 7): the oral administration group of the CDK inhibitor: being intragastrically administered with the CDK inhibitor (the time was shown in Table 7), and then being administered with the chemotherapeutic agent (the mode and dosage were shown in Table 7): the intraperitoneal injection group of the CDK inhibitor: being intraperitoneally injected with the CDK inhibitor (the time was shown in Table 7), and then being administered with the chemotherapeutic agent (the mode and dosage were shown in Table 7): the intramuscular injection group of the CDK inhibitor: being intramuscularly injected with the CDK inhibitor (the time was shown in Table 7), and then being administered with the chemotherapeutic agent (the mode and dosage were shown in Table 7); and the local administration group of the CDK inhibitor: the hair on the abdomen of mice was shaved (about 2 cm*2 cm), being applied with the CDK inhibitor (the time was shown in Table 7), and then being administered with the chemotherapeutic agent (the mode and dosage were shown in Table 7).
as §1

SMILES: CC(=O)c1c(C)c2cnc(Nc3ccc(N4CCNCC4)cn3)nc2n(C2CCCC2)c1=O [Palbociclib]
- Relative remission rate ([1]; Example 293, Fluorouracil (5-Fu) oral administration 300 mg/kg single, 8 h before, cycle 7 days): 50%
- Relative remission rate ([1]; Example 304, Irinotecan (CPT-11) intraperitoneal injection 260 mg/kg single, 0.5 h before, cycle 7 days): 40%
- Relative remission rate ([1]; Example 305, Irinotecan (CPT-11) intraperitoneal injection 260 mg/kg single, 4 h before, cycle 7 days): 60%
- Relative remission rate ([1]; Example 306, Irinotecan (CPT-11) intraperitoneal injection 260 mg/kg single, 8 h before, cycle 7 days): 80%
- Relative remission rate ([1]; Example 307, Irinotecan (CPT-11) intraperitoneal injection 260 mg/kg single, 12 h before, cycle 7 days): 70%
- Relative remission rate ([1]; Example 308, Irinotecan (CPT-11) intraperitoneal injection 260 mg/kg single, 24 h before, cycle 7 days): 30%
- Relative remission rate ([1]; Example 309, Irinotecan (CPT-11) intraperitoneal injection 260 mg/kg single, 48 h before, cycle 7 days): 0%
- Relative remission rate ([1]; Example 333, Cytarabine (Ara-C) intravenous injection 600 mg/kg single, 6 h before, cycle 8 days): 50%
- Relative remission rate ([2]; Example 230, Doxorubicin (Dox) intraperitoneal injection 10 mg/kg single, CDK inhibitor oral 150 mg/kg single, 0.5 h before, cycle 12 days): 50%
- Relative remission rate ([2]; Example 231, Doxorubicin (Dox) intraperitoneal injection 10 mg/kg single, CDK inhibitor oral 150 mg/kg single, 4 h before, cycle 12 days): 70%
- Relative remission rate ([2]; Example 232, Doxorubicin (Dox) intraperitoneal injection 10 mg/kg single, CDK inhibitor oral 150 mg/kg single, 8 h before, cycle 12 days): 70%
- Relative remission rate ([2]; Example 233, Doxorubicin (Dox) intraperitoneal injection 10 mg/kg single, CDK inhibitor oral 150 mg/kg single, 12 h before, cycle 12 days): 80%
- Relative remission rate ([2]; Example 234, Doxorubicin (Dox) intraperitoneal injection 10 mg/kg single, CDK inhibitor oral 150 mg/kg single, 24 h before, cycle 12 days): 50%
- Relative remission rate ([2]; Example 235, Doxorubicin (Dox) intraperitoneal injection 10 mg/kg single, CDK inhibitor oral 150 mg/kg single, 48 h before, cycle 12 days): 0%
- Relative remission rate ([2]; Example 249, Methotrexate (MTX) oral administration 400 mg/kg single, CDK inhibitor oral 125 mg/kg single, 4 h before, cycle 7 days): 60%
- Relative remission rate ([2]; Example 250, Methotrexate (MTX) oral administration 400 mg/kg single, CDK inhibitor oral 125 mg/kg single, 24 h before, cycle 7 days): 60%
- Relative remission rate ([2]; Example 260, Cytarabine (Ara-C) intravenous injection 600 mg/kg single, CDK inhibitor oral 150 mg/kg single, 6 h before, cycle 8 days): 60%
- Relative remission rate ([2]; Example 271, Vinorelbine (NVB) intraperitoneal injection 10 mg/kg single, CDK inhibitor oral 200 mg/kg single, 12 h before, cycle 7 days): 70%
- Relative remission rate of other administration mode ([3]; Example 382, Docetaxel (DTX) intraperitoneal injection 10 mg/kg single, CDK inhibitor intraperitoneal injection 150 mg/kg single, 0.5 h before): 10%
- Relative remission rate of oral administration ([3]; Example 382, Docetaxel (DTX) intraperitoneal injection 10 mg/kg single, CDK inhibitor oral 150 mg/kg single, 0.5 h before): 40%
- Relative remission rate of other administration mode ([3]; Example 383, Docetaxel (DTX) intraperitoneal injection 10 mg/kg single, CDK inhibitor intraperitoneal injection 150 mg/kg single, 4 h before): 10%
- Relative remission rate of oral administration ([3]; Example 383, Docetaxel (DTX) intraperitoneal injection 10 mg/kg single, CDK inhibitor oral 150 mg/kg single, 4 h before): 40%
- Relative remission rate of other administration mode ([3]; Example 384, Docetaxel (DTX) intraperitoneal injection 10 mg/kg single, CDK inhibitor intraperitoneal injection 150 mg/kg single, 8 h before): 10%
- Relative remission rate of oral administration ([3]; Example 384, Docetaxel (DTX) intraperitoneal injection 10 mg/kg single, CDK inhibitor oral 150 mg/kg single, 8 h before): 50%
- Relative remission rate of other administration mode ([3]; Example 385, Docetaxel (DTX) intraperitoneal injection 10 mg/kg single, CDK inhibitor intraperitoneal injection 150 mg/kg single, 12 h before): 20%
- Relative remission rate of oral administration ([3]; Example 385, Docetaxel (DTX) intraperitoneal injection 10 mg/kg single, CDK inhibitor oral 150 mg/kg single, 12 h before): 70%
- Relative remission rate of other administration mode ([3]; Example 386, Docetaxel (DTX) intraperitoneal injection 10 mg/kg single, CDK inhibitor intraperitoneal injection 150 mg/kg single, 24 h before): 10%
- Relative remission rate of oral administration ([3]; Example 386, Docetaxel (DTX) intraperitoneal injection 10 mg/kg single, CDK inhibitor oral 150 mg/kg single, 24 h before): 50%
- Relative remission rate of other administration mode ([3]; Example 403, Gemcitabine (GEM) intravenous injection 120 mg/kg single, CDK inhibitor intravenous injection 200 mg/kg single, 12 h before): 20%
- Relative remission rate of oral administration ([3]; Example 403, Gemcitabine (GEM) intravenous injection 120 mg/kg single, CDK inhibitor oral 200 mg/kg single, 12 h before): 60%
